According to patent publication US7049293B2, “Peptide and osteogenetic accelerator” (Kyocera Corporation, priority 1998, dated 2006):
Residues, ends and D or L forms follow the SMILES beside them.

How the values were obtained:
C3H10T1/2 cells = assay: Cytotoxicity test in vitro, C3H10T1/2 cells (protein concentration, BCA); format: cell-based; settings: 100 μg/ml, six days
Protocol: C3H10T1/2 cells were dispersed in Eagle's MEM containing 10% fetal bovine serum, pipetted on a 96-well culture plate, 3750 cells per well, and incubated at 37° C. in the presence of 5% CO2. Into the wells, a PBS solution of the peptide described in Example 1 was added so that the resulting concentration became 100 μg/ml, followed by incubation under the same conditions for six days. Then the culture medium was removed and a cytolytic solution (0.1M Tris-HCl buffer containing 1% Triton X-100, pH 9) was added to dissolve cells. Then the concentration of protein was determined using BCA reagent (produced by Funakoshi Kabushiki Kaisha).

rats = assay: Acute toxicity test on rats; format: in vivo, rats (Lewis); settings: 500 μg intraperitoneally three times in a week
Protocol: A PBS solution of 500 μg of the peptide described in Example 1 was intraperitoneally administered to six-week-old female rats (Lewis, purchased from Nippon SLC) three times in a week. […] Neither were the rats observed to have a poor coat of fur or any abnormal behavior during the test.

rat bone marrow cells = assay: Cytotoxicity test in vitro, rat bone marrow cells (colony count, Giemsa staining); format: cell-based, rats (Lewis); settings: 30 μg/ml, seven days
Excerpt: Femurs were aseptically taken out of six-week-old female rats (Lewis, purchased from Nippon SLC). Both ends of the femurs were cut off. Then bone marrow was extruded into centrifugal tubes by means of Eagle's MEM containing 10% of fetal bovine serum using an injection syringe with a 21 G injection needle. The bone marrow cells were sufficiently dispersed with a pipette and filtered through a 40 μm filter to remove agglutinations. The resulting bone marrow cells were centrifuged with Eagle's MEM containing 10% of fetal bovine serum three times (1200 rpm, 5 min.×3), and then the number of cells was counted. The bone marrow cells were diluted with Alpha MEM containing 10% of fetal bovine serum so that relatively large bone marrow cells were present in a concentration of 10^6/ml. The dilution was pipetted 10 ml in each culture flask having a culture area of 25 cm^2 and incubated at 37° C. in the presence of 5% CO2. […]
Twenty-four hours after the incubation was started, culture medium was removed and Alpha MEM containing 10% of fetal bovine serum and 30 μg/ml of the peptide described in Example 1 was added to the cells under culture. […] After seven days, the number of formed colonies of bone marrow cells was counted using Giemsa staining. […]

## CC[C@H](C)[C@H](NC(=O)[C@H](C)NC(=O)[C@H](CO)NC(=O)[C@H](CC(C)C)NC(=O)[C@H](CCC(=O)O)NC(=O)[C@@H](NC(=O)[C@@H]1CCCN1C(=O)[C@@H](NC(=O)[C@H](CS)NC(=O)[C@H](CS)NC(=O)[C@H](C)NC(=O)[C@H](CCCCN)NC(=O)[C@@H]1CCCN1C(=O)[C@@H](NC(=O)[C@H](CCCCN)NC(=O)[C@H](CO)NC(=O)[C@H](CC(N)=O)NC(=O)[C@@H](NC(=O)[C@H](CO)NC(=O)[C@@H](N)CC(N)=O)C(C)C)[C@@H](C)CC)C(C)C)[C@@H](C)O)C(=O)O [Example 1] (H-NSVNSKIPKACCVPTELSAI-OH)
C3H10T1/2 cells; C3H10T1/2 cells
  cytotoxicity (conclusion): did not have cytotoxicity
C3H10T1/2 cells; n=12, PBS control 0.07±0.03
  concentration of protein: 120 ± 20 µg/mL
rats; after a week, n=6, PBS control 23±5
  increase in weight: 25 ± 6 g
rats; no poor coat of fur or abnormal behavior
  acute toxicity (conclusion): no significant acute toxicity
Rat bone marrow cells; average per flask, PBS control 89
  number of formed colonies of bone marrow cells: 101
Rat bone marrow cells; rat bone marrow cells
  cytotoxicity (conclusion): did not have cytotoxicity
